US6448204B1, “Herbicidal 2-aryloxy-4-methyl-6-pyrazol-1-yl-pyridines” (BASF Aktiengesellschaft, priority 1999, dated 2002)

Columns and labels:
Type in all cases: in vivo
Stellaria media (STEME) [1] = assay: Pre-emergence test; details: 0.400 kg/ha, 3 weeks after treatment
Protocol: (§1) To evaluate their herbicidal activity, compounds according to the invention are tested using a representative range of plants: […] The pre-emergence tests involve spraying a liquid formulation of the compound onto the soil in which the seeds of the plant species mentioned above has recently been sown. The soil used in the tests is a prepared horticultural loam. […] In these tests untreated sown soil are used as controls.

Zea mays (ZEAMX) = assay: Pre-emergence test; details: crop (corn), 3 weeks after treatment
Protocol: as §1

[2] = system: Abutilon theophrasti (ABUTH); assay: Post-emergence test; details: 2-4 weeks after treatment
Protocol: (§2) To evaluate their herbicidal activity, compounds according to the invention are tested using a representative range of plants:
(§3) These acetone solutions are diluted with water and the resulting formulations applied at dosage levels equivalent of about 0.025 to 0.4 kg per hectare of test compound per pot. After spraying the plants are placed on greenhouse benches and are cared for in the usual manner, commensurate with conventional greenhouse practices. From 2 to 4 weeks after treatment, the seedling plants are examined and rated according to the rating system provided above.

[3] = system: Alopecurus myosuroides (ALOMY); assay: Post-emergence test; details: 2-4 weeks after treatment
Protocol: as §2, §3

[4] = system: Ambrosia artemisifolia (AMBEL); assay: Post-emergence test; details: 2-4 weeks after treatment
Protocol: as §2, §3

[5] = system: Cassia obtusifolia (CASOB); assay: Post-emergence test; details: 2-4 weeks after treatment
Protocol: as §2, §3

[6] = system: Digitaria sanguinalis (DIGSA); assay: Post-emergence test; details: 2-4 weeks after treatment
Protocol: as §2, §3

[7] = system: Echinochloa crus-galli (ECHCG); assay: Post-emergence test; details: 2-4 weeks after treatment
Protocol: as §2, §3

Galium aparine (GALAP) = assay: Post-emergence test; details: 2-4 weeks after treatment
Protocol: as §2, §3

[8] = system: Ipomoea hederacea (IPOHE); assay: Post-emergence test; details: 2-4 weeks after treatment
Protocol: as §2, §3

Lamium purpureum (LAMPU) = assay: Post-emergence test; details: 2-4 weeks after treatment
Protocol: as §2, §3

[9] = system: Lolium multiflorum (LOLMU); assay: Post-emergence test; details: 2-4 weeks after treatment
Protocol: as §2, §3

[10] = system: Matricaria inodora (MATIN); assay: Post-emergence test; details: 2-4 weeks after treatment
Protocol: as §2, §3

Setaria viridis (SETVI) = assay: Post-emergence test; details: 2-4 weeks after treatment
Protocol: as §2, §3

Stellaria media (STEME) [11] = assay: Post-emergence test; details: 2-4 weeks after treatment
Protocol: as §2, §3

[12] = system: thirteen weed species (broadleaf weeds and grasses); assay: Pre-emergence test, summary over all weeds; details: for Number of weed species well / sufficiently controlled: out of thirteen species
Protocol: as §1

weed species = assay: Post-emergence test, summary over all weeds
Protocol: as §2, §3

`Cn1nc(C(F)(F)F)cc1Oc1cccc(-n2ccc(C(F)(F)F)n2)n1` [Comparison] was tested, and the “Assessment rating STEME (pre-emergence application)” value (Stellaria media (STEME) [1]) was 9 (9 - Complete kill), the “Assessment rating ZEAMX (pre-emergence application)” value (“Assessment rating ZEAMX” for short) (Zea mays (ZEAMX); 0.013 kg/ha) was 0 (0 - No effect) and the “Assessment rating ZEAMX” value (Zea mays (ZEAMX); 0.025 kg/ha) was 0 (0 - No effect). For the same compound, the “Assessment rating ZEAMX” value (Zea mays (ZEAMX); 0.100 kg/ha) was 1 (1 - Trace effect), the “Assessment rating ZEAMX” value (Zea mays (ZEAMX); 0.400 kg/ha) was 2 (2 - Slight effect) and the “Rating ABUTH (post-emergence application)” value (shortened to “Rating ABUTH”) ([2]; 0.025 kg/ha) was 3 (3 - Moderate effect). The “Rating ABUTH” value ([2]; 0.100 kg/ha) was 6 (6 - Herbicidal effect), the “Rating ABUTH” value ([2]; 0.400 kg/ha) was 8 (8 - Approaching complete kill) and the “Rating ALOMY (post-emergence application)” value (“Rating ALOMY” below) ([3]; 0.025 kg/ha) was 2 (2 - Slight effect). For the same compound, the “Rating ALOMY” value ([3]; 0.100 kg/ha) was 4 (4 - Injury), the “Rating ALOMY” value ([3]; 0.400 kg/ha) was 8 (8 - Approaching complete kill) and the “Rating AMBEL (post-emergence application)” value (from here on “Rating AMBEL”) ([4]; 0.025 kg/ha) was 2 (2 - Slight effect). For the same compound, the “Rating AMBEL” value ([4]; 0.100 kg/ha) was 6 (6 - Herbicidal effect), the “Rating AMBEL” value ([4]; 0.400 kg/ha) was 8 (8 - Approaching complete kill) and the “Rating CASOB (post-emergence application)” value (shortened to “Rating CASOB”) ([5]; 0.025 kg/ha) was 9 (9 - Complete kill). For the same compound, the “Rating CASOB” value ([5]; 0.100 kg/ha) was 9 (9 - Complete kill), the “Rating CASOB” value ([5]; 0.400 kg/ha) was 9 (9 - Complete kill) and the “Rating DIGSA (post-emergence application)” value (“Rating DIGSA” below) ([6]; 0.025 kg/ha) was 3 (3 - Moderate effect). For the same compound, the “Rating DIGSA” value ([6]; 0.100 kg/ha) was 6 (6 - Herbicidal effect), the “Rating DIGSA” value ([6]; 0.400 kg/ha) was 8 (8 - Approaching complete kill) and the “Rating ECHCG (post-emergence application)” value (from here on “Rating ECHCG”) ([7]; 0.025 kg/ha) was 4 (4 - Injury). The “Rating ECHCG” value ([7]; 0.100 kg/ha) was 7 (7 - Good herbicidal effect), the “Rating ECHCG” value ([7]; 0.400 kg/ha) was 9 (9 - Complete kill) and the “Rating GALAP (post-emergence application)” value (shortened to “Rating GALAP”) (Galium aparine (GALAP); 0.025 kg/ha) was 4 (4 - Injury). The “Rating GALAP” value (Galium aparine (GALAP); 0.100 kg/ha) was 6 (6 - Herbicidal effect), the “Rating GALAP” value (Galium aparine (GALAP); 0.400 kg/ha) was 8 (8 - Approaching complete kill) and the “Rating IPOHE (post-emergence application)” value (“Rating IPOHE” below) ([8]; 0.025 kg/ha) was 5 (5 - Definite injury). For the same compound, the “Rating IPOHE” value ([8]; 0.100 kg/ha) was 9 (9 - Complete kill), the “Rating IPOHE” value ([8]; 0.400 kg/ha) was 9 (9 - Complete kill) and the “Rating LAMPU (post-emergence application)” value (from here on “Rating LAMPU”) (Lamium purpureum (LAMPU); 0.025 kg/ha) was 7 (7 - Good herbicidal effect). The “Rating LAMPU” value (Lamium purpureum (LAMPU); 0.100 kg/ha) was 9 (9 - Complete kill), the “Rating LAMPU” value (Lamium purpureum (LAMPU); 0.400 kg/ha) was 9 (9 - Complete kill) and the “Rating LOLMU (post-emergence application)” value (shortened to “Rating LOLMU”) ([9]; 0.025 kg/ha) was 4 (4 - Injury). For the same compound, the “Rating LOLMU” value ([9]; 0.100 kg/ha) was 7 (7 - Good herbicidal effect), the “Rating LOLMU” value ([9]; 0.400 kg/ha) was 9 (9 - Complete kill) and the “Rating MATIN (post-emergence application)” value (“Rating MATIN” below) ([10]; 0.025 kg/ha) was 4 (4 - Injury). The “Rating MATIN” value ([10]; 0.100 kg/ha) was 6 (6 - Herbicidal effect), the “Rating MATIN” value ([10]; 0.400 kg/ha) was 8 (8 - Approaching complete kill) and the “Rating SETVI (post-emergence application)” value (from here on “Rating SETVI”) (Setaria viridis (SETVI); 0.025 kg/ha) was 3 (3 - Moderate effect). For the same compound, the “Rating SETVI” value (Setaria viridis (SETVI); 0.100 kg/ha) was 6 (6 - Herbicidal effect), the “Rating SETVI” value (Setaria viridis (SETVI); 0.400 kg/ha) was 8 (8 - Approaching complete kill) and the “Rating STEME (post-emergence application)” value (Stellaria media (STEME) [11]; 0.025 kg/ha) was 7 (7 - Good herbicidal effect). For the same compound, the “Rating STEME (post-emergence application)” value (Stellaria media (STEME) [11]; 0.100 kg/ha) was 9 (9 - Complete kill), the “Rating STEME (post-emergence application)” value (Stellaria media (STEME) [11]; 0.400 kg/ha) was 9 (9 - Complete kill) and the “Active ingredient required for maize selective weed control relative to the compound of the invention” value [12] was “four times more active ingredient”. For the same compound, the “Herbicidal activity, overall judgement” value [12] was “clearly inferior in activity”, the “Rate required to obtain the same level of weed control” value [12] was 0.400 kg/ha and the “Number of weed species well / sufficiently controlled” value ([12]; 0.100 kg/ha) was “six out of thirteen species”. For the same compound, the “Number of weed species well / sufficiently controlled” value ([12]; 0.400 kg/ha) was “ten”, the “Number of weed species controlled” value (weed species; 0.025 kg/ha) was “one species” and the “Number of weed species controlled” value (weed species; 0.100 kg/ha) was “four species”.
